Patent US12398142B2, “Abelson non-tyrosine kinase compounds for the treatment of neurodegenerative diseases” (Emory University, priority 2019, dated 2025)
Where two headings read alike, the source gives them in different places.

Key:
CYP2D6 = CYP2D6 (Homo sapiens (Human), UniProt P10635); test: CYP2D6 IC50; format: in vitro ADME; details: unit given as mM
hERG = hERG (Homo sapiens (Human), UniProt Q12809); test: in vitro; details: for SI / selectivity ratio at 4 h: human, pH 7.5
Protocol: Compounds were prepared as 10 mM DMSO stock and stored at −80° C.
Assay Format: The assay is based on the competition of fluorescently labeled Tracer binding to the membrane preparation containing hERG.
Assay conditions: 1 nM Predictor™ hERG Tracer Red; 1X Predictor™ hERG Membrane
Assay Procedure: Compounds in DMSO were added into the Membrane mixture by using Acoustic Technology. Tracer was added, and gentled mixed in the dark. FP was measured after 4 hours incubation at room temperature and mP calculated.

CYP3A4 = CYP3A4 (Homo sapiens (Human), UniProt P08684); test: CYP3A4 IC50; format: in vitro ADME; details: unit given as mM
ABL1 = ABL1 (Homo sapiens (Human), UniProt P00519); test: Kinase profiling, ABL1 10-dose IC50; format: biochemical
[1] = 10 μM ATP, second run (CD-1-051, ZD-3-167, CD-1-067), read-out: Compound IC50 ABL1 Data 1
[2] = 10 μM ATP, second run, read-out: Compound IC50 ABL1 Data 2
[3] = summary table, read-out: Abl1 IC50
[4] = IC50 of Tracer Binding hERG AVERAGE, first run, average of duplicates
[5] = IC50 of Tracer Binding hERG Data 1, first run, 4 hours incubation
[6] = IC50 of Tracer Binding hERG Data 2, first run
[7] = hERG IC50, summary table, unit given as mM
[8] = 10 μM ATP, first run (TK3-141, TK3-144, CD-1-002), read-out: Compound IC50 ABL1 Data 1
[9] = 10 μM ATP, first run, average of duplicates, read-out: Compound IC50 ABL1 Avg
[10] = 10 μM ATP, first run, read-out: Compound IC50 ABL1 Data 2
[11] = Average hERG (IC50), second run, average
[12] = IC50 of Tracer Binding hERG Data 1, second run
[13] = IC50 of Tracer Binding hERG Data 2, second run
[14] = 10 μM ATP, second run, average of duplicates, read-out: Compound IC50 ABL1 Avg

hERG, sequence (Q12809 whole entry): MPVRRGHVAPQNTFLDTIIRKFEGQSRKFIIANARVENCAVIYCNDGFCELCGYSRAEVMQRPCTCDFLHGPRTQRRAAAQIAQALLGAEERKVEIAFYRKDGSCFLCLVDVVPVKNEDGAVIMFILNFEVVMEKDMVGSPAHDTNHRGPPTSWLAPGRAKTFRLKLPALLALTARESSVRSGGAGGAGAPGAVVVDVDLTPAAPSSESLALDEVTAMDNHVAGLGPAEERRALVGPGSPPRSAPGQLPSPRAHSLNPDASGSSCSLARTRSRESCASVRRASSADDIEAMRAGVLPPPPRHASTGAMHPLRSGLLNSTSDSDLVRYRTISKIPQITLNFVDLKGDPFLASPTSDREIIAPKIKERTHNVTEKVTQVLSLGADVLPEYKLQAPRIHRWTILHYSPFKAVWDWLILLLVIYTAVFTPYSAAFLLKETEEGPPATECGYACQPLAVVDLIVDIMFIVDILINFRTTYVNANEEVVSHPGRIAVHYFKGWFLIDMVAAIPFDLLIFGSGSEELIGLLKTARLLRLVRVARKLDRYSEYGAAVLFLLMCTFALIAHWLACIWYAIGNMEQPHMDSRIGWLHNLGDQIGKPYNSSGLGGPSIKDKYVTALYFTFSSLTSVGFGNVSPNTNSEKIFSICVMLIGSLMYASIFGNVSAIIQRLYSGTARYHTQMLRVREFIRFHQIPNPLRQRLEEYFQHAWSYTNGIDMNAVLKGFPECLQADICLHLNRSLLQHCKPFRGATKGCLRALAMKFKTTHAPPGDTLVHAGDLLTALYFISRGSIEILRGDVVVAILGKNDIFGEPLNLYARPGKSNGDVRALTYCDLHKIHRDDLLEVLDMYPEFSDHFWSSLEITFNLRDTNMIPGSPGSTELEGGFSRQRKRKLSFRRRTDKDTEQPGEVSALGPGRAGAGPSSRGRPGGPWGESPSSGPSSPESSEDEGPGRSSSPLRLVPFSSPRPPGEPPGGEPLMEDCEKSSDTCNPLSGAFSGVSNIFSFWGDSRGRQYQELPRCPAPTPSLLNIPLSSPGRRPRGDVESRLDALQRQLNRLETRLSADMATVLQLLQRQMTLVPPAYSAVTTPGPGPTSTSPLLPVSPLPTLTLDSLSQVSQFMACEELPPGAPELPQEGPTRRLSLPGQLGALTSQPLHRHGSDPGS
CYP2D6, sequence (P10635 whole entry, species assumed): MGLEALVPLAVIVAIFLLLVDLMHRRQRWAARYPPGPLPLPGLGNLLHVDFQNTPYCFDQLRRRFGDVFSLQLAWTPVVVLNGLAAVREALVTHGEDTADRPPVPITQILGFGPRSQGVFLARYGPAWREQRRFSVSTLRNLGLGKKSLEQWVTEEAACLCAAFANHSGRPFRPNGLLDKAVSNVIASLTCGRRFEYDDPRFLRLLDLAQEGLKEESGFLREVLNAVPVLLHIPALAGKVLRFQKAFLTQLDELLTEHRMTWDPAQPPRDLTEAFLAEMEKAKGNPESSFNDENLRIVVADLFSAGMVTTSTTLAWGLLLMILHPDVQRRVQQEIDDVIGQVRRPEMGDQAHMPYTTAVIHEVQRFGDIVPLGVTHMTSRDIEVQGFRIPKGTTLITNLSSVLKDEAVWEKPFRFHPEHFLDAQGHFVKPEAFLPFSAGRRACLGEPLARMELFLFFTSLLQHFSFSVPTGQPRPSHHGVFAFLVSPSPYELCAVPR
CYP3A4, sequence (P08684 whole entry, species assumed): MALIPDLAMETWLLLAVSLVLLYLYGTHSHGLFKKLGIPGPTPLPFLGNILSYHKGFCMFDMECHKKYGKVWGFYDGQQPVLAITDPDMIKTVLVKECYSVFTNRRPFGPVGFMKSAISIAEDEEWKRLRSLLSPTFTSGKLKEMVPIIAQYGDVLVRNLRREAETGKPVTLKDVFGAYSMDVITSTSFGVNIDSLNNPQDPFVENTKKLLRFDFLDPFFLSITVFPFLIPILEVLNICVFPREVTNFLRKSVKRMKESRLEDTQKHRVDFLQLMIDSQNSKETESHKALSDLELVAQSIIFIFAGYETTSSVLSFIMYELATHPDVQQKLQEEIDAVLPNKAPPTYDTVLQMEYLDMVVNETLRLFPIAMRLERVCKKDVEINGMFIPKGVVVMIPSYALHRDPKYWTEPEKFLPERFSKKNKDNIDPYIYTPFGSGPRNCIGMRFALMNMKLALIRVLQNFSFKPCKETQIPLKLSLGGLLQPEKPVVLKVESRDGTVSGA
ABL1, sequence (P00519 whole entry): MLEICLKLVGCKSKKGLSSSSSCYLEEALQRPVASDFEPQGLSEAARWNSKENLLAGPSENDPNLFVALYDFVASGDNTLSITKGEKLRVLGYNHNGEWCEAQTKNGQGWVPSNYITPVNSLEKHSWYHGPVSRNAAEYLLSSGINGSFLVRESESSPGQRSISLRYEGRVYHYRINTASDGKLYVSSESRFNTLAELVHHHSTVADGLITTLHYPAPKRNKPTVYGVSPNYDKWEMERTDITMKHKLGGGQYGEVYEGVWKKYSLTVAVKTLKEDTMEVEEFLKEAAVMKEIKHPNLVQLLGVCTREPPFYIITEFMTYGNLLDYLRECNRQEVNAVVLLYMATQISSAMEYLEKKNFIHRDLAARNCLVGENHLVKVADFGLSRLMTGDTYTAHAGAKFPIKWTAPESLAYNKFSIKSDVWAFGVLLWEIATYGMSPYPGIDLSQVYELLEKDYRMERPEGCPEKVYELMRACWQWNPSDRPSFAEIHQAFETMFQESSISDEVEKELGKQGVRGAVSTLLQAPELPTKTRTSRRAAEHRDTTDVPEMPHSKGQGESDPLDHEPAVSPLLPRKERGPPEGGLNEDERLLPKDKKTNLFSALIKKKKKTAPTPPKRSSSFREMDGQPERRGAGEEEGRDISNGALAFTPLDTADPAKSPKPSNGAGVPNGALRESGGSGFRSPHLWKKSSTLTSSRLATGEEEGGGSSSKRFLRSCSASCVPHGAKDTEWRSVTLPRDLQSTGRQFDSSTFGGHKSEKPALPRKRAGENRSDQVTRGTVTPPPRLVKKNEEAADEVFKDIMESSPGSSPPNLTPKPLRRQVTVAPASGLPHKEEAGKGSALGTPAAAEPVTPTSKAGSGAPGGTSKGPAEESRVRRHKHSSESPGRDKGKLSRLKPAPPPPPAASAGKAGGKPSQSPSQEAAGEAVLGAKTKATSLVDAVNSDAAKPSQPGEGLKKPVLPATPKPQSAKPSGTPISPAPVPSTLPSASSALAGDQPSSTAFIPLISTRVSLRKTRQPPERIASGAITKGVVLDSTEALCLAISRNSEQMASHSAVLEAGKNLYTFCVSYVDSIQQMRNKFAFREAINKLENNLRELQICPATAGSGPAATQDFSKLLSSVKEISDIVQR

Compound | IC50 (CYP2D6) | SI (hERG) | IC50 (CYP3A4) | IC50 (ABL1; [1]) | IC50 (ABL1; [2]) | IC50 (ABL1; [3]) | IC50 (hERG; [4]) | IC50 (hERG; [5]) | IC50 (hERG; [6]) | IC50 (hERG; [7]) | IC50 (ABL1; [8]) | IC50 (ABL1; [9]) | IC50 (ABL1; [10]) | IC50 (hERG; [11]) | IC50 (hERG; [12]) | IC50 (hERG; [13]) | selectivity ratio at 4 h (hERG) | IC50 (ABL1; [14])
Cc1ccc(C(=O)Nc2ccc(CN3Cc4ccc(O)cc4C3)c(Cl)c2)cc1C#Cc1cnc2cccnn12 [CD-1-067, N-(3-chloro-4-((5-hydroxyisoindolin-2-yl)methyl)phenyl)-3-(imidazo [1,2-b]pyridazin-3-ylethynyl)-4-methylbenzamide] | 0.00339 mM | <26 | 0.00461 mM | > 30 nM | > 30 nM | > 30 nM |  |  |  |  |  |  |  |  |  |  |  | 
Cc1ccc(C(=O)Nc2ccc(CN3CCN(CCO)CC3)c(C3CC3)c2)cc1C#Cc1cnc2cccnn12 [TK3-144, N-[3-cyclopropyl-4-[[4-(2-hydroxyethyl)piperazin-1-yl]methyl]phenyl]-3-(2-imidazo[1,2-b]pyridazin-3-ylethynyl)-4-methyl-benzamide] | 0.00199 mM | 263 | 0.0118 mM |  |  | 0.39 nM | 103 nM | 105 nM | 102 nM | 103 nM | 0.413 nM | 0.392 nM | 0.371 nM |  |  |  |  | 
Cc1cn(-c2cc(NC(=O)c3ccc(C)c(Nc4nccc(-c5cccnc5)n4)c3)cc(C(F)(F)F)c2)cn1 [Nilotinib, reference compound] | > 0.1 mM |  | 0.00058 mM |  |  |  |  |  |  |  |  |  |  |  |  |  |  | 
Cc1ccc(C(=O)Nc2ccc(CN3CCc4cn[nH]c4C3)c(Cl)c2)cc1C#Cc1cnc2cccnn12 [CD-1-051, N-[3-chloro-4-(1,4,5,7-tetrahydropyrazolo[3,4-c]pyridin-6-ylmethyl)phenyl]-3-(2-imidazo[1,2-b]pyridazin-3-ylethynyl)-4-methyl-benzamide] | 0.03 mM | 506 | 0.00557 mM | 11 nM | 8.87 nM | 9.93 nM |  |  |  | 5020 nM |  |  |  | 5020 nM | 3840 nM | 6200 nM | 506 | 9.93 nM
COCCN1CCN(Cc2ccc(NC(=O)c3ccc(C)c(C#Cc4cnc5cccnn45)c3)cc2C2CC2)CC1 [CD-1-002, N-[3-cyclopropyl-4-[[4-(2-methoxyethyl)piperazin-1-yl]methyl]phenyl]-3-(2-imidazo[1,2-b]pyridazin-3-ylethynyl)-4-methyl-benzamide] | 0.0248 mM | 126 | 0.0128 mM |  |  | 0.64 nM | 81 nM | 62 nM | 100 nM | 81 nM | 0.686 nM | 0.643 nM | 0.601 nM |  |  |  |  | 
Cc1ccc(C(=O)Nc2ccc(CN3Cc4cn[nH]c4C3)c(Cl)c2)cc1C#Cc1cnc2cccnn12 [ZD-3-167, N-[3-chloro-4-(4,6-dihydro-1H-pyrrolo[3,4-c]pyrazol-5-ylmethyl)phenyl]-3-(2-imidazo[1,2-b]pyridazin-3-ylethynyl)-4-methyl-benzamide] | 0.0137 mM | >943 | 0.00728 mM | 11.1 nM | 10.1 nM | 10.6 nM |  |  |  | > 10000 nM |  |  |  | 10200 nM | > 10000 nM | > 10000 nM | 963 | 10.6 nM
Cc1ccc(C(=O)Nc2ccc(CN3CCN(CCO)CC3)c(Cl)c2)cc1C#Cc1cnc2cccnn12 [TK3-141, N-[3-chloro-4-[[4-(2-hydroxyethyl)piperazin-1-yl]methyl]phenyl]-3-(2-imidazo[1,2-b]pyridazin-3-ylethynyl)-4-methyl-benzamide] | 0.00102 mM | 1158 | 0.00801 mM |  |  | 0.3 nM | 345 nM | 138 nM | 552 nM | 345 nM | 0.31 nM | 0.297 nM | 0.285 nM |  |  |  |  | 
